# Assay results: patent US12139477B2, “Compounds, salts thereof and methods for treatment of diseases” (ACADIA PHARMACEUTICALS INC., priority 2017, dated 2024)
# Target: 5HT2A (Homo sapiens, UniProt P28223)
# Test: Receptor Selection and Amplification (R-SAT) functional assay
# Format: cell-based
# Set-up: expressed in transfected cells; host or cells: NIH3T3 cells, pSI mammalian expression vector
# Conditions: NIH3T3 cells; Ki from IC50 by Cheng and Prussoff
# Excerpt: Receptor Selection and Amplification (R-SAT) Assays. […] The IC50 determined in the RSAT assay was converted into a Ki value using the method of Cheng and Prussoff, Biochem Pharmacol., 1973 Dec. 1; 22(23):3099-108. pKi is the negative of the log(Ki).
# 5HT2A, sequence (P28223 whole entry): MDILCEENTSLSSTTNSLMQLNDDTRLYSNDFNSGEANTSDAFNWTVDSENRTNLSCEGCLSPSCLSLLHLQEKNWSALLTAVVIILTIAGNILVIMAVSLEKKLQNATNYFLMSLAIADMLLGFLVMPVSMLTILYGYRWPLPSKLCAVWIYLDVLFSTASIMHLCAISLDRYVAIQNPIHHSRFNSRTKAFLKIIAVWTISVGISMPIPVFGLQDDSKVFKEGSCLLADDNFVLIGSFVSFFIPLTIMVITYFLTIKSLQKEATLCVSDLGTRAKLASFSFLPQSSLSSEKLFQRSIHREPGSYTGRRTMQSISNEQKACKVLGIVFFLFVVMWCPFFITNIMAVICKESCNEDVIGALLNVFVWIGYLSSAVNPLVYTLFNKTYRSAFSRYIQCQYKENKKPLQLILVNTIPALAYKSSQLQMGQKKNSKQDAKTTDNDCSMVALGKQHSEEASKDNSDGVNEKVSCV
row,SMILES,5-HT2a (pKi) (R-SAT)
1,"CCCCOc1ccc(CNC(=O)N(Cc2ccc(F)cc2F)C2CCNCC2)cc1.CCCCOc1ccc(CNC(=O)N(Cc2ccc(F)cc2F)C2CCNCC2)cc1.O=C(O)C(O)C(O)C(=O)O [Example 123, 3-[(4-butoxyphenyl)methyl]-1-[(2,4-difluorophenyl)methyl]-1-(piperidin-4-yl)urea; Hemitartrate]",7.8
2,"COc1ccc(CNC(=O)N(Cc2ccc(F)cc2F)C2CCNCC2)cc1.COc1ccc(CNC(=O)N(Cc2ccc(F)cc2F)C2CCNCC2)cc1.O=C(O)C(O)C(O)C(=O)O [Example 126, 1-[(2,4-difluorophenyl)methyl]-3-[(4-methoxyphenyl)methyl]-1-(piperidin-4-yl)urea; Hemitartrate]",8.1
3,"CCOc1ccc(CNC(=O)N(Cc2ccc(F)cc2F)C2CCNCC2)cc1.CCOc1ccc(CNC(=O)N(Cc2ccc(F)cc2F)C2CCNCC2)cc1.O=C(O)C(O)C(O)C(=O)O [Example 127, 3-[(2,4-difluorophenyl)methyl]-1-[(4-ethoxyphenyl)methyl]-3-(piperidin-4-yl)urea; Hemitartrate]",8.2

# Same assay, conditions: NIH3T3 cells; Ki from IC50 by Cheng and Prussoff; read-out: 5-HT2a (pKi) (R-SAT) (converted)
row,SMILES,Ki
1,"CC(C)COc1ccc(CNC(=O)N(Cc2ccc(F)cc2OC(F)F)C2CCN(C)CC2)cc1 [Example 101, 1-{[2-(difluoromethoxy)-4-fluorophenyl]methyl}-1-(1-methylpiperidin-4-yl)-3-{[4-(2-methylpropoxy)phenyl]methyl}urea; Trifluoroacetic Acid]",79.4 nM
2,"CC(C)COc1ccc(CNC(=O)N(Cc2ccc(F)cc2OC(F)(F)F)C2CCN(C)CC2)cc1 [Example 103, 1-{[4-fluoro-2-(trifluoromethoxy)phenyl]methyl}-1-(1-methylpiperidin-4-yl)-3-{[4-(2-methylpropoxy)phenyl]methyl}urea; Trifluoroacetic Acid]",251 nM
3,"Cc1cc(F)ccc1CN(C(=O)NCc1ccc(OCC(C)C)cc1)C1CCN(C)CC1 [Example 104, 1-[(4-fluoro-2-methylphenyl)methyl]-1-(1-methylpiperidin-4-yl)-3-{[4-(2-methylpropoxy)phenyl]methyl}urea; Trifluoroacetic Acid]",39.8 nM
4,"COc1ccc(CN(C(=O)NCc2ccc(OCC(C)C)cc2)C2CCN(C)CC2)c(Cl)c1 [Example 105, 1-[(2-chloro-4-methoxyphenyl)methyl]-1-(1-methylpiperidin-4-yl)-3-{[4-(2-methylpropoxy)phenyl]methyl}urea; Trifluoroacetic Acid]",100 nM
5,"CC(C)Oc1ccc(CNC(=O)N(Cc2ccc(Cl)cc2Cl)C2CCN(C)CC2)cc1 [Example 106, 1-[(2,4-dichlorophenyl)methyl]-1-(1-methylpiperidin-4-yl)-3-{[4-(propan-2-yloxy)phenyl]methyl}urea; Trifluoroacetic Acid]",50.1 nM
6,"CC(C)Oc1ccc(CNC(=O)N(Cc2ccc(Cl)cc2Cl)C2CCNCC2)cc1 [Example 108, 1-[(2,4-dichlorophenyl)methyl]-1-(piperidin-4-yl)-3-{[4-(propan-2-yloxy)phenyl]methyl}urea; Trifluoroacetic Acid]",79.4 nM
7,"CC(C)COc1ccc(CNC(=O)N(Cc2ccc(F)cc2Cl)C2CCNCC2)cc1 [Example 109, 1-[(2-chloro-4-fluorophenyl)methyl]-3-{[4-(2-methylpropoxy)phenyl]methyl}-1-(piperidin-4-yl)urea; Trifluoroacetic Acid]",25.1 nM
8,"CC(C)Oc1ccc(CNC(=O)N(Cc2ccc(F)cc2Cl)C2CCNCC2)cc1 [Example 110, 1-[(2-chloro-4-fluorophenyl)methyl]-1-(piperidin-4-yl)-3-{[4-(propan-2-yloxy)phenyl]methyl}urea; Trifluoroacetic Acid]",25.1 nM
9,"CC(C)COc1ccc(CNC(=O)N(Cc2ccc(Cl)cc2Cl)C2CCNCC2)cc1 [Example 111, 1-[(2,4-dichlorophenyl)methyl]-3-{[4-(2-methylpropoxy)phenyl]methyl}-1-(piperidin-4-yl)urea; Trifluoroacetic Acid]",79.4 nM
10,"Cc1ccc(F)c(CN(C(=O)NCc2ccc(OC(C)C)cc2)C2CCN(C)CC2)c1F [Example 112, 1-[(2,6-difluoro-3-methylphenyl)methyl]-1-(1-methylpiperidin-4-yl)-3-{[4-(propan-2-yloxy)phenyl]methyl}urea; Trifluoroacetic Acid]",39.8 nM
11,"CC(C)Oc1ccc(CNC(=O)N(Cc2c(F)ccc(F)c2F)C2CCN(C)CC2)cc1 [Example 113, 1-(1-methylpiperidin-4-yl)-3-{[4-(propan-2-yloxy)phenyl]methyl}-1-[(2,3,6-trifluorophenyl)methyl]urea; Trifluoroacetic Acid]",126 nM
12,"Cc1c(F)ccc(CN(C(=O)NCc2ccc(OC(C)C)cc2)C2CCN(C)CC2)c1F [Example 114, 1-[(2,4-difluoro-3-methylphenyl)methyl]-1-(1-methylpiperidin-4-yl)-3-{[4-(propan-2-yloxy)phenyl]methyl}urea; Trifluoroacetic Acid]",6.31 nM
13,"Cc1cc(OC(C)C)ccc1CNC(=O)N(Cc1ccc(F)cc1F)C1CCN(C)CC1 [Example 116, 1-[(2,4-difluorophenyl)methyl]-3-{[2-methyl-4-(propan-2-yloxy)phenyl]methyl}-1-(1-methylpiperidin-4-yl)urea; Hemitartrate]",63.1 nM
14,"CCCCOc1ccc(CNC(=O)N(Cc2ccc(F)cc2F)C2CCN(C)CC2)cc1 [Example 124, 3-[(4-butoxyphenyl)methyl]-1-[(2,4-difluorophenyl)methyl]-1-(1-methylpiperidin-4-yl)urea]",10 nM

# Now from value to molecule:
row,Ki,SMILES
1,10 nM,"COc1ccc(CNC(=O)N(Cc2ccc(F)cc2F)C2CCN(C)CC2)cc1F [Example 118, 1-[(2,4-difluorophenyl)methyl]-3-[(3-fluoro-4-methoxyphenyl)methyl]-1-(1-methylpiperidin-4-yl)urea]"
2,63.1 nM,"CN1CCC(N(Cc2ccc(F)cc2F)C(=O)NCc2ccc(O)cc2F)CC1 [Example 119, 1-[(2,4-difluorophenyl)methyl]-3-[(2-fluoro-4-hydroxyphenyl)methyl]-1-(1-methylpiperidin-4-yl)urea]"
3,7.94 nM,"CN1CCC(N(Cc2ccc(F)cc2F)C(=O)NCc2ccc(Oc3ccccc3)cc2)CC1 [Example 120, 3-[(2,4-difluorophenyl)methyl]-3-(1-methylpiperidin-4-yl)-1-[(4-phenoxyphenyl)methyl]urea]"
4,126 nM,"COc1ccc(CN(C(=O)NCc2ccc(OCC(C)C)cc2)C2CCN(C)CC2)c(C(F)(F)F)c1 [Example 121, 3-{[4-methoxy-2-(trifluoromethyl)phenyl]methyl}-3-(1-methylpiperidin-4-yl)-1-{[4-(2-methylpropoxy)phenyl]methyl}urea]"
5,7.94 nM,"COc1ccc(CN(C(=O)NCc2ccc(OC(C)C)cc2)C2CCN(C)CC2)c(F)c1 [Example 122, 1-[(2-fluoro-4-methoxyphenyl)methyl]-1-(1-methylpiperidin-4-yl)-3-{[4-(propan-2-yloxy)phenyl]methyl}urea; Trifluoroacetic Acid]"
6,7.94 nM,"CN1CCC(N(Cc2ccc(F)cc2F)C(=O)NCc2ccc3c(c2)OCO3)CC1 [Example 128, 3-[(2H-1,3-benzodioxol-5-yl)methyl]-1-[(2,4-difluorophenyl)methyl]-1-(1-methylpiperidin-4-yl)urea]"
7,50.1 nM,"CC(C)COc1ccc(CNC(=O)N(Cc2cccc(F)c2F)C2CCN(C)CC2)cc1 [Example 129, 1-[(2,3-difluorophenyl)methyl]-1-(1-methylpiperidin-4-yl)-3-{[4-(2-methylpropoxy)phenyl]methyl}urea; Trifluoroacetic Acid]"
8,79.4 nM,"CC(C)Oc1ccc(CNC(=O)N(Cc2ccc(F)c(F)c2)C2CCN(C)CC2)cc1 [Example 130, 1-[(3,4-difluorophenyl)methyl]-1-(1-methylpiperidin-4-yl)-3-{[4-(propan-2-yloxy)phenyl]methyl}urea; Trifluoroacetic Acid]"
9,0.631 nM,"O=C(O)C(F)(F)F.[2H]C([2H])([2H])N1CCC(N(Cc2ccc(F)cc2F)C(=O)NCc2ccc(OC(C)C)cc2)CC1 [Example 131, 1-[(2,4-difluorophenyl)methyl]-1-[1-(^2H3)methylpiperidin-4-yl]-3-{[4-(propan-2-yloxy)phenyl]methyl}urea; Trifluoroacetic Acid]"
10,79.4 nM,"CC(C)Oc1ccc(CNC(=O)N(Cc2ccc(F)c(F)c2F)C2CCNCC2)cc1 [Example 132, 1-(piperidin-4-yl)-3-{[4-(propan-2-yloxy)phenyl]methyl}-1-[(2,3,4-trifluorophenyl)methyl]urea; Trifluoroacetic Acid]"
11,5.01 nM,"CC(C)Oc1ccc(CNC(=O)N(Cc2ccc(Cl)cc2F)C2CCNCC2)cc1 [Example 133, 3-[(4-chloro-2-fluorophenyl)methyl]-3-(piperidin-4-yl)-1-{[4-(propan-2-yloxy)phenyl]methyl}urea; Trifluoroacetic Acid]"
12,3.98 nM,"CC(C)COc1ccc(CNC(=O)N(Cc2ccc(Cl)cc2F)C2CCNCC2)cc1 [Example 134, 3-[(4-chloro-2-fluorophenyl)methyl]-1-{[4-(2-methylpropoxy)phenyl]methyl}-3-(piperidin-4-yl)urea; Trifluoroacetic Acid]"
13,15.8 nM,"CC(C)Oc1ccc(CNC(=O)N(Cc2ccc(F)c(F)c2F)C2CCN(C)CC2)cc1 [Example 135, 1-(1-methylpiperidin-4-yl)-3-{[4-(propan-2-yloxy)phenyl]methyl}-1-[(2,3,4-trifluorophenyl)methyl]urea; Trifluoroacetic Acid]"
14,7.94 nM,"COc1cc(F)c(CN(C(=O)NCc2ccc(OC(C)C)cc2)C2CCN(C)CC2)c(F)c1 [Example 136, 1-[(2,6-difluoro-4-methoxyphenyl)methyl]-1-(1-methylpiperidin-4-yl)-3-{[4-(propan-2-yloxy)phenyl]methyl}urea; Trifluoroacetic Acid]"
15,3.16 nM,"CCCOc1ccc(CNC(=O)N(Cc2ccc(F)cc2F)C2CCN(C)CC2)cc1 [Example 140, 1-[(2,4-difluorophenyl)methyl]-1-(1-methylpiperidin-4-yl)-3-[(4-propoxyphenyl)methyl]urea]"
